Drawing on ChEMBL document CHEMBL1155888, “Synthesis, inhibitory activities, and QSAR study of xanthone derivatives as alpha-glucosidase inhibitors” (Bioorg Med Chem, 2008), this text covers IC50 for 43 compounds.

A short description of the test: Inhibition of yeast alpha glucosidase in phosphate buffer after 0.5 hrs by spectrophotometry. Further details: species or system Saccharomyces.
The IC50 is the concentration that inhibits the measured activity by half. A lower IC50 goes with inhibition by little substance. For the compound `O=c1c2ccccc2oc2cccc(O)c12`, 177 µM corresponded to half-maximal inhibition (IC50). `COc1cc(O)c2c(=O)c3ccccc3oc2c1` gave an IC50 of 173 µM. Compound `Oc1cc(O)c2c(c1)Oc1cc3ccccc3cc1C2` displayed an IC50 of 27.8 µM. `COc1cc(O)c2c(=O)c3cc4ccccc4cc3oc2c1` displayed an IC50 of 31.3 µM. With `Oc1cc(O)c2c(c1)Oc1ccc3ccccc3c1C2`, the IC50 worked out at 34.9 µM. In the case of `O=c1c2cc3ccccc3cc2oc2cc(O)cc(O)c12`, the IC50 stood at 9.3 µM. In turn, `O=c1c2cc3cc(O)ccc3cc2oc2cc(O)cc(O)c12` showed an IC50 of 5.8 µM.

`O=c1c2cc3cccc(O)c3cc2oc2cc(O)cc(O)c12` had an IC50 of 8 µM. With `O=c1c2ccccc2oc2cc(OCC3CO3)cc(O)c12` (stereo not drawn), the IC50 is 66.6 µM. On to `O=c1c2cc(O)ccc2oc2cc(O)cc(O)c12`, for which it took 14.7 µM to reach half-maximal inhibition (IC50). For the compound `O=c1c2cc3ccccc3cc2oc2c([N+](=O)[O-])c(O)cc(O)c12`, the half-maximal inhibitory concentration (IC50) amounted to 20.1 µM. Regarding `O=c1c2c(O)cc(O)cc2oc2ccc3ccccc3c12`, it took 39.9 µM to reach half-maximal inhibition (IC50). The figure for `O=c1c2ccccc2oc2cc(O)cc(O)c12` is 161 µM; for `CCCCCOc1cc(O)c2c(=O)c3ccccc3oc2c1` it is 121 µM; for `O=c1c2ccc(O)cc2oc2cccc(O)c12` it is 131 µM.

As for `Nc1c(O)cc(O)c2c(=O)c3ccccc3oc12`, half-maximal inhibition (IC50) required 102 µM.

Take `CC(=O)Oc1cc(OC(C)=O)c2c(=O)c3ccccc3oc2c1`: the IC50 came out at 31.9 µM.

The compound `O=c1c2ccccc2oc2cc(OCC3CCCO3)cc(O)c12` (stereo not drawn) gave a 50% inhibitory concentration (IC50) of 53 µM.

Regarding `O=c1c2ccc(OCCCN3CCCCC3)cc2oc2cccc(O)c12`, the IC50 stood at 133 µM. As for `CCCCCCCOc1cc(O)c2c(=O)c3ccccc3oc2c1`, the IC50 was 114 µM.

`CCCCCCCCOc1cc(O)c2c(=O)c3ccccc3oc2c1`: the 50% inhibitory concentration (IC50) was 124 µM. As for `O=c1c2ccc(O)cc2oc2cc(O)cc(O)c12`, the half-inhibitory concentration (IC50) was 41.5 µM. Consider `CC(=O)Oc1cc(OC(C)=O)c2c(=O)c3cc(OC(C)=O)ccc3oc2c1`, for which the IC50 came out at 46.5 µM. In the case of `CCCCCCCCCCOc1cc(O)c2c(=O)c3ccccc3oc2c1` it was 116 µM; in that of `O=c1c2ccccc2oc2cc(OCc3ccccc3)cc(O)c12`, 98.2 µM; in that of `CCCCOc1cc(O)c2c(=O)c3ccccc3oc2c1`, 130 µM.

`CCOc1cc(O)c2c(=O)c3ccccc3oc2c1` showed an IC50 of 111 µM. The figure for `O=c1c2c(O)cccc2oc2cc(O)cc(O)c12` is 81.8 µM. The figure for `CC(=O)Oc1cc(OC(C)=O)c2c(=O)c3c(OC(C)=O)cc(OC(C)=O)cc3oc2c1` is 49.7 µM; for `O=c1c2ccccc2oc2c([N+](=O)[O-])c(O)cc(O)c12` it is 235 µM. As for `O=c1c2cc3ccccc3cc2oc2cc(OCCCBr)cc(O)c12`, the IC50 is 29.7 µM. In turn, `Nc1c(O)cc2oc3cc4ccccc4cc3c(=O)c2c1O` gave an IC50 of 6.3 µM.

`O=c1c2ccccc2oc2cc(OCCCBr)cc(O)c12` gave a half-inhibitory concentration (IC50) of 147 µM. As for `O=c1c2ccccc2oc2c3c(cc(O)c12)OCCC3`, 198 µM corresponded to half-maximal inhibition (IC50). Compound `O=c1c2cc3ccccc3cc2oc2cc(O)c([N+](=O)[O-])c(O)c12` gave an IC50 of 5.9 µM. `O=c1c2c(O)cccc2oc2cccc(O)c12` registered a concentration for half-maximal inhibition (IC50) of 91.5 µM. For the compound `O=c1c2ccc(OCC3CO3)cc2oc2cccc(O)c12` (stereo not drawn), the IC50 turned out to be 63.5 µM. Consider `O=c1c2c(O)cc(O)cc2oc2cc(O)cc(O)c12`, for which inhibition was half-maximal at 17.1 µM (IC50). `CC(=O)Oc1ccc2c(=O)c3c(OC(C)=O)cccc3oc2c1`: the 50% inhibitory concentration (IC50) was 139 µM.

Compound `O=c1c2ccccc2oc2cc(OCCCN3CCN(c4cccc(Cl)c4)CC3)cc(O)c12` came in with a concentration for half-maximal inhibition (IC50) of 61.8 µM.

For `O=c1c2ccccc2oc2cc(OCCCN3CCCCC3)cc(O)c12`, the half-maximal inhibitory concentration (IC50) is 115 µM. Regarding `O=c1c2cc3ccccc3cc2oc2c3c(cc(O)c12)OCCC3`, the IC50 was 67.3 µM.

In turn, `Nc1c(O)cc(O)c2c(=O)c3cc4ccccc4cc3oc12` yielded a concentration for half-maximal inhibition (IC50) of 8.3 µM.
